Laboratory results from patent US10538487B2, “Sulfonylureas and related compounds and use of same” (priority 2015, dated 2020).

Test system: not listed separately
Assay: Single dose pharmacokinetic study in mice (iv 4 mg/Kg, po 20 mg/Kg), plasma concentration post-dosing
Assay type: in vivo, mouse
Conditions: mice, iv dose of 4 mg/Kg and po dose of 20 mg/Kg
Experimental: This is advantageous leading to comparatively lower doses or less frequent administration. The procedure followed was: Male C57BL/6 mice were used at 7-9 weeks age with 3 animals per group. Mice were dosed with test compound using single intravenous bolus or oral gavage. Blood samples were taken via submandibular or saphenous vein for analysis of plasma concentrations of compound by LC-MS/MS at the following timepoints: IV (3 mice): 0.083, 0.25, 0.5, 1, 2, 4, 8 and 24 hours post dosing, PO (3 mice): 0.25, 0.5, 1, 2, 4, 8 and 24 hours post dosing. LC-MS/MS method for the quantitative determination of test compound in corresponding biological matrix was developed. […] The results are shown graphically in FIGS. 1A to 1C (MCC950) and FIGS. 2A to 2C (MCC7840).

Compound	area under the curve (AUC) in comparison to MCC950	half-life in comparison to MCC950	maximum concentration (Cmax) in comparison to MCC950
CC(C)n1ccc(S(=O)(=O)NC(=O)Nc2c3c(cc4c2CCC4)CCC3)n1 [MCC7840, N-((1,2,3,5,6,7-hexahydro-s-indacen-4-yl)carbamoyl)-1-isopropyl-1H-pyrazole-3-sulfonamide]	increased	extended half-life	increased maximum concentration (Cmax)

Biological target: NLRP3 inflammasome (Homo sapiens, UniProt Q96P20)
Sequence (Q96P20 whole entry): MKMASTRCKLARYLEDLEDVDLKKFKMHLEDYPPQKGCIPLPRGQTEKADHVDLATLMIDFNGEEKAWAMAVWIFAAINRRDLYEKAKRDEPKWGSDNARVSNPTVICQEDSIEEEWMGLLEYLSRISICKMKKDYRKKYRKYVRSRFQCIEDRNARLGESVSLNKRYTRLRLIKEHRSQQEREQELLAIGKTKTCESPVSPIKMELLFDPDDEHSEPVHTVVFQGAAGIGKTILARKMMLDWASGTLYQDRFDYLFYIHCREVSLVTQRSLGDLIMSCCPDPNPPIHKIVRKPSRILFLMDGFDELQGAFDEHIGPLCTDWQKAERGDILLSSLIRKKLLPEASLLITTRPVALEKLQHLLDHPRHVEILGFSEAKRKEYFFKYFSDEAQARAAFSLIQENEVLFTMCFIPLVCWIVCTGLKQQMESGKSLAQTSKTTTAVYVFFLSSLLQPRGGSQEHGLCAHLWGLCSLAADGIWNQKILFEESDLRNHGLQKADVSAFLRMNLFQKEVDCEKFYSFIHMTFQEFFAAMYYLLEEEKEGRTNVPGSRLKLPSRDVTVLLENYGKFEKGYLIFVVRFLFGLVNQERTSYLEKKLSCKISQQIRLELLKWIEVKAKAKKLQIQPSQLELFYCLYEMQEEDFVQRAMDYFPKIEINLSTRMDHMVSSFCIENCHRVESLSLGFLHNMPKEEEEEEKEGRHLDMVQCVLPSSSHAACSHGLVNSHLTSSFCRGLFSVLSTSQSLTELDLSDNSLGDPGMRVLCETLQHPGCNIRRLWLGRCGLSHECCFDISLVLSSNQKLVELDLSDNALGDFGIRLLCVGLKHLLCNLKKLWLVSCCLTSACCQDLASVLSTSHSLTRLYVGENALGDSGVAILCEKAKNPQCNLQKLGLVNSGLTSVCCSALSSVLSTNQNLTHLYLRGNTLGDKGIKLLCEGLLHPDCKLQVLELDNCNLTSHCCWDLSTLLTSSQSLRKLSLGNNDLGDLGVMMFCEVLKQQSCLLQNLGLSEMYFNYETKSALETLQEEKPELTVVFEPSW
Assay: Inhibition of IL-1β release, NLRP3 inflammasome activation assay in HMDM
Assay type: cell-based
Conditions: commercial compounds (Table 9), read-out: HMDM IC50 vs NLRP3
Experimental: The following assays can be used to determine inhibitory activity of test compounds on the NLRP3 inflammasome using common stimuli such as adenosine triphosphate, nigericin, LeuLeu-OMe or monosodium urate crystals (MSU).
To generate HMDM, human monocytes are isolated from buffy coat blood using Ficoll-Plaque Plus (GE Healthcare) and density centrifugation. CD14^+ cell selection is performed using MACS magnetic beads (Miltenyl Biotec).
HMDM are seeded at 1×10^5/ml. […] Medium is removed and replaced with serum free medium (SFM) containing test compound 30 min prior to NLRP3 stimulation. […] ATP can be sourced from Sigma Aldrich, nigericin and MSU from Invivogen and LeuLeu-Ome from Chem-Impex International.
For ELISA and cell death assays cells are seeded in 96 well plates. Supernatants are removed and analysed using ELISA kits according to the manufacturer's instructions (DuoSet® R&D Systems, ReadySetGo!® eBioscience, BD OptEIA™, or Perkin Elmer AlphaLISA®). Cell death is assessed by measurement of LDH release relative to a 100% cell lysis control using the CytoTox96® non-radioactive cytotoxicity assay (Promega).

Compound	IC50 [nM]
CCC1=C(C)CN(C(=O)NCCc2ccc(S(=O)(=O)NC(=O)NC3CCC(C)CC3)cc2)C1=O (stereo not drawn) [Glimepiride, reference compound]	92000
CCCCNC(=O)NS(=O)(=O)c1ccc(N)cc1 [Carbutamide, reference compound]	> 200000
Cc1cnc(C(=O)NCCc2ccc(S(N)(=O)=O)cc2)cn1 [Glipizide precursor, reference compound]	> 50000
Cc1ccc(S(=O)(=O)NC(=O)NN2CCCCCC2)cc1 [Tolazamide, reference compound]	> 200000

Same assay, conditions: inhibition of IL-1β release, class symbols, read-out: Avg. IL-1β IC50 HMDM

Compound	IC50 [nM]
CN(C)c1cccc2c(S(=O)(=O)NC(=O)Nc3c4c(cc5c3CCC5)CCC4)cccc12 [5-(dimethylamino)-N-((1,2,3,5,6,7-hexahydro-s-indacen-4-yl)carbamoyl)naphthalene-1-sulfonamide]	< 1000
O=C(Nc1c2c(cc3c1CCC3)CCC2)NS(=O)(=O)c1ccc(Cl)cc1 [4-chloro-N-((1,2,3,5,6,7-hexahydro-s-indacen-4-yl)carbamoyl)benzenesulfonamide]	< 1000
Cc1cc(C2CC2)nc(NC(=O)NS(=O)(=O)c2cc(C(C)(C)O)co2)n1 [N-((4-cyclopropyl-6-methylpyrimidin-2-yl)carbamoyl)-4-(2-hydroxypropan-2-yl)furan-2-sulfonamide]	< 1000
CC(C)c1cc(Cl)cc(C(C)C)c1NC(=O)NS(=O)(=O)c1cccc2ncccc12 [N-((4-chloro-2,6-diisopropylphenyl)carbamoyl)quinoline-5-sulfonamide]	< 1000
O=C(Nc1c2c(cc3c1OCC3)OCC2)NS(=O)(=O)c1cccc(C2(C(F)(F)F)N=N2)c1 [N-((2,3,6,7-tetrahydrobenzo[1,2-b:4,5-b′]difuran-4-yl)carbamoyl)-3-(3-(trifluoromethyl)-3H-diazirin-3-yl)benzenesulfonamide]	< 10000
CN(C)Cc1ccc(S(=O)(=O)NC(=O)Nc2c3c(cc4c2CCC4)CCC3)o1 [5-((dimethylamino)methyl)-N-((1,2,3,5,6,7-hexahydro-s-indacen-4-yl)carbamoyl)furan-2-sulfonamide]	< 100
[2H]C([2H])([2H])C(O)(c1cc(S(=O)(=O)NC(=O)Nc2c3c(c(Br)c4c2OCC4)CCC3)oc1C)C([2H])([2H])[2H] [N-((4-bromo-3,5,6,7-tetrahydro-2H-indeno[5,6-b]furan-8-yl)carbamoyl)-4-(2-hydroxypropan-2-yl-1,1,1,3,3,3-d6)-5-methylfuran-2-sulfonamide]	< 100
O=C(Nc1c2c(cc3c1CCC3)CCC2)NS(=O)(=O)c1cnc2c(c1)CCC2 [N-((1,2,3,5,6,7-hexahydro-s-indacen-4-yl)carbamoyl)-6,7-dihydro-5H-cyclopenta[b]pyridine-3-sulfonamide]	< 100
CC(C)c1cc(S(=O)(=O)NC(=O)Nc2c3c(cc4c2CCC4)CCC3)nn1C [N-((1,2,3,5,6,7-hexahydro-s-indacen-4-yl)carbamoyl)-5-isopropyl-1-methyl-1H-pyrazole-3-sulfonamide]	< 1000
CN(C)c1ccc2c(CC(=O)NCCc3ccc(S(=O)(=O)NC(=O)Nc4c5c(cc6c4CCC6)CCC5)cc3)cc(=O)oc2c1 [2-(7-(Dimethylamino)-2-oxo-2H-chromen-4-yl)-N-(4-(N-(1,2,3,5,6,7-hexahydro-s-indacen-4-ylcarbamoyl)sulfamoyl)phenethyl)acetamide]	< 1000
O=C(Nc1cccc2cccnc12)NS(=O)(=O)c1cccc(C2(C(F)(F)F)N=N2)c1 [N-(quinolin-8-ylcarbamoyl)-3-(3-(trifluoromethyl)-3H-diazirin-3-yl)benzenesulfonamide]	< 10000
Cn1nc(S(=O)(=O)NC(=O)Nc2c3c(cc4c2CCC4)CCC3)cc1C(F)(F)F [N-((1,2,3,5,6,7-hexahydro-s-indacen-4-yl)carbamoyl)-1-methyl-5-(trifluoromethyl)-1H-pyrazole-3-sulfonamide]	< 1000
O=C(Nc1c2c(cc3c1CCC3)CCC2)NS(=O)(=O)C1CCCCC1 [N-((1,2,3,5,6,7-hexahydro-s-indacen-4-yl)carbamoyl)cyclohexanesulfonamide]	< 10000
CC(C)(O)c1coc(S(=O)(=O)NC(=O)Nc2c3c(cc4c2C(O)CC4)CCC3)c1 (stereo not drawn) [N-((3-hydroxy-1,2,3,5,6,7-hexahydro-s-indacen-4-yl)carbamoyl)-4-(2-hydroxypropan-2-yl)furan-2-sulfonamide]	< 1000
O=C(Nc1c2c(cc3c1CCC3)CCC2)NS(=O)(=O)c1cc(C(F)(F)F)ccn1 [N-((1,2,3,5,6,7-hexahydro-s-indacen-4-yl)carbamoyl)-4-(trifluoromethyl)pyridine-2-sulfonamide]	< 100
CN(C)S(=O)(=O)NC(=O)Nc1c2c(cc3c1CCC3)CCC2 [N-[1,2,3,5,6,7-hexahydro-s-indacen-4-yl]-N′-[(dimethylamino)sulfonyl]urea]	< 10000
CC(C)(O)c1coc(S(=O)(=O)NC(=O)Nc2c3c(cc4c2CCC4O)CCC3)c1 (stereo not drawn) [N-((1-hydroxy-1,2,3,5,6,7-hexahydro-s-indacen-4-yl)carbamoyl)-4-(2-hydroxypropan-2-yl)furan-2-sulfonamide]	< 10000
O=C(Nc1c2c(cc3c1CCC3)CCC2)NS(=O)(=O)c1ccc2c(c1)S(=O)(=O)CC2 [N-((1,2,3,5,6,7-hexahydro-s-indacen-4-yl)carbamoyl)-2,3-dihydrobenzo[b]thiophene-6-sulfonamide 1,1-dioxide]	< 1000
O=C(Nc1c2c(cc3c1CCC3)CCC2)NS(=O)(=O)c1cc2ccccc2o1 [N-((1,2,3,5,6,7-hexahydro-s-indacen-4-yl)carbamoyl)benzofuran-2-sulfonamide]	< 1000
Cc1cc(S(=O)(=O)NC(=O)Nc2c3c(cc4c2CCC4)CCC3)nn1C [N-((1,2,3,5,6,7-hexahydro-s-indacen-4-yl)carbamoyl)-1,5-dimethyl-1H-pyrazole-3-sulfonamide]	< 1000
[2H]C([2H])([2H])C(O)(c1cc(S(=O)(=O)NC(=O)Nc2c3c(cc4c2CCO4)CCC3)oc1C)C([2H])([2H])[2H] [4-(2-hydroxypropan-2-yl-1,1,1,3,3,3-d6)-5-methyl-N-((3,5,6,7-tetrahydro-2H-indeno[5,6-b]furan-4-yl)carbamoyl)furan-2-sulfonamide]	< 100
O=C(Nc1c2c(cc3c1CCC3)CCC2)NS(=O)(=O)N1CCOCC1 [N-((1,2,3,5,6,7-hexahydro-s-indacen-4-yl)carbamoyl)morpholine-4-sulfonamide]	< 10000
O=C(CCc1cn(CCCNc2ccc([N+](=O)[O-])c3nonc23)nn1)Nc1cccc(S(=O)(=O)NC(=O)Nc2c3c(cc4c2CCC4)CCC3)c1 [N-(3-(N-((1,2,3,5,6,7-hexahydro-s-indacen-4-yl)carbamoyl)sulfamoyl)phenyl)-3-(1-(3-((7-nitrobenzo[c][1,2,5]oxadiazol-4-yl)amino)propyl)-1H-1,2,3-triazol-4-yl)propanamide]	< 10000
O=C(Nc1c2c(cc3c1CCC3)CCC2)NS(=O)(=O)C1CCCC1 [N-((1,2,3,5,6,7-hexahydro-s-indacen-4-yl)carbamoyl)cyclopentanesulfonamide]	< 10000
CC(C)c1cc(Cl)cc(C(C)C)c1NC(=O)NS(=O)(=O)c1cc(C(C)(C)O)co1 [sodium ((4-chloro-2,6-diisopropylphenyl)carbamoyl)((4-(2-hydroxypropan-2-yl)furan-2-yl)sulfonyl)amide]	< 100
O=C(Nc1c2c(cc3c1CCC3)CCC2)NS(=O)(=O)c1cccc(C(=O)O)c1 [3-(N-((1,2,3,5,6,7-hexahydro-s-indacen-4-yl)carbamoyl)sulfamoyl)benzoic acid]	< 100
CC(C)c1cc(Cl)cc(C(C)C)c1NC(=O)NS(=O)(=O)c1cnc2ccccc2c1 [N-((4-chloro-2,6-diisopropylphenyl)carbamoyl)quinoline-3-sulfonamide]	< 100
CC(c1ccccc1)n1ccc(S(=O)(=O)NC(=O)Nc2c3c(cc4c2CCC4)CCC3)n1 (stereo not drawn) [N-((1,2,3,5,6,7-hexahydro-s-indacen-4-yl)carbamoyl)-1-(1-phenylethyl)-1H-pyrazole-3-sulfonamide]	< 1000
CC(C)c1cc(Cl)cc(C(C)C)c1NC(=O)NS(=O)(=O)c1ccn(C(C)C)n1 [sodium ((4-chloro-2,6-diisopropylphenyl)carbamoyl)((1-isopropyl-1H-pyrazol-3-yl)sulfonyl)amide]	< 1000
